Results taken from patent publication USRE40912E1, “Process for isolation, purification, and recrystallization of lutein from saponified marigold oleoresin and uses thereof” (The Catholic University of America, priority 1994, dated 2009).

How the values were obtained:
[1] = human study of oral lutein dose, plasma carotenoid profile; format: in vivo; details: oral 10 mg lutein dose as suspension in olive oil (ethanol, α-tocopherol, polysorbate 80), spread on a bagel
Procedure: Carotenoids are considered among the fat soluble nutrients and are usually associated with the lipoprotein fractions of human blood. […] In the following, the procedure employed for the preparation of a small batch (100 dose, each 10 mg) of purified lutein is described.
Purified lutein from marigold flowers extract (1 g) was added to absolute alcohol (75 mL). To this solution α-tocopherol (50 mg) and food grade polysorbate 80 (an emulsifier, 4 g) was added and the mixture was sonicated for 10 minutes. The addition of α-tocopherol (0.01% by weight) was to stabilize lutein and prevent this compound from possible oxidation during long term storage. The above suspension was then mixed with 350 g of light and mild olive oil (saturated fat/polyunsaturated fat=2/1) and the mixture was sonicated for 5 minutes. […] 7 mL aliquots of this suspension was shown by spectrophotometric analysis to contain 10 mg of lutein. At various intervals, the stability and the purity of lutein suspension in the olive oil was determined by spectrophotometric and HPLC analysis. […] In one study each 7 mL aliquot of the olive oil (containing 10 mg lutein) was spread on a bagel prior to ingestion. Alternatively, this small volume of oil can be readily taken with other foods. […]

[2] = stability of lutein suspension in olive oil by spectrophotometric and HPLC analysis; format: physicochemical; details: suspension in olive oil with α-tocopherol and polysorbate 80, stored under nitrogen in a refrigerator
Procedure: Purified lutein from marigold flowers extract (1 g) was added to absolute alcohol (75 mL). To this solution α-tocopherol (50 mg) and food grade polysorbate 80 (an emulsifier, 4 g) was added and the mixture was sonicated for 10 minutes. The addition of α-tocopherol (0.01% by weight) was to stabilize lutein and prevent this compound from possible oxidation during long term storage. The above suspension was then mixed with 350 g of light and mild olive oil (saturated fat/polyunsaturated fat=2/1) and the mixture was sonicated for 5 minutes. […] 7 mL aliquots of this suspension was shown by spectrophotometric analysis to contain 10 mg of lutein. At various intervals, the stability and the purity of lutein suspension in the olive oil was determined by spectrophotometric and HPLC analysis. […] In one study each 7 mL aliquot of the olive oil (containing 10 mg lutein) was spread on a bagel prior to ingestion. Alternatively, this small volume of oil can be readily taken with other foods. Although this preparation of lutein dose is appropriate for conducting human studies with a limited number of subjects, other preparations of this compound into tablets or capsules can be accomplished. The formulation of β-carotene into tablets and capsules which has been developed by Hoffmann-La Roche Inc. (Nutley, N.J.), may also be found suitable for lutein with some minor modifications.

CC1=C[C@H](O)CC(C)(C)[C@H]1/C=C/C(C)=C/C=C/C(C)=C/C=C/C=C(C)/C=C/C=C(C)/C=C/C1=C(C)C[C@@H](O)CC1(C)C [lutein, (3R,3′R,6′R)-β,ε-Carotene-3,3′-diol]
absorption of lutein by the subjects as determined from analysis of their plasma carotenoid profile [1]: excellent absorption
stability of lutein suspension in olive oil [2]: stable for up to one month
